Measured values taken from the supplement of paper PMC10307832.

Assays:
Experiment in all cases: relative viability (nuclei count vs DMSO), 5 days (fraction); higher = more cells survive
Decitabine + Dasatinib = compound: Nc1ncn([C@H]2C[C@H](O)[C@@H](CO)O2)c(=O)n1 [Decitabine] + Cc1nc(Nc2ncc(C(=O)Nc3c(C)cccc3Cl)s2)cc(N2CCN(CCO)CC2)n1 [Dasatinib] (partner 0.075 µM)
Procedure, shortened: (§1)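 For relative viability, nuclei counts in treated wells were divided by those in vehicle wells. Lung cancer cell lines had been pin-tool dosed in 1536-well plates the day after seeding and cultured for 5 days, then fixed and stained in one step (final 0.05% Triton X-100, 1% formaldehyde, 1 ug/ml Hoechst) and imaged at 4×. Doses were one drug alone or a fixed anchor-drug dose plus five library-drug doses (not always all listed) in √10 steps, and values are duplicate-plate medians.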

Decitabine + AZD7762 = compound: Nc1ncn([C@H]2C[C@H](O)[C@@H](CO)O2)c(=O)n1 [Decitabine] + NC(=O)Nc1cc(-c2cccc(F)c2)sc1C(=O)N[C@H]1CCCNC1 [AZD7762] (partner 0.2 µM)
Procedure, shortened: as §1

Decitabine + Vorinostat = compound: Nc1ncn([C@H]2C[C@H](O)[C@@H](CO)O2)c(=O)n1 [Decitabine] + O=C(CCCCCCC(=O)Nc1ccccc1)NO [Vorinostat] (partner 1 µM)
Procedure, shortened: as §1

[1] = compound: O=C(C[C@H]1NCCC[C@@H]1O)Cn1cnc2cc(Br)c(Cl)cc2c1=O (racemic) [Halofuginone] + CC(=O)c1c(C)c2cnc(Nc3ccc(N4CCNCC4)cn3)nc2n(C2CCCC2)c1=O [Palbociclib] (partner 0.5 µM)
Procedure, shortened: as §1

| Cell Line | relative viability (Decitabine + Dasatinib; first compound 0.04 µM) | relative viability (Decitabine + Dasatinib; first compound 0.1265 µM) | relative viability (Decitabine + Dasatinib; first compound 0.4 µM) | relative viability (Decitabine + Dasatinib; first compound 1.265 µM) | relative viability (Decitabine + Dasatinib; first compound 4 µM) | relative viability (Decitabine + AZD7762; first compound 0.04 µM) | relative viability (Decitabine + AZD7762; first compound 0.1265 µM) | relative viability (Decitabine + AZD7762; first compound 0.4 µM) | relative viability (Decitabine + AZD7762; first compound 1.265 µM) | relative viability (Decitabine + AZD7762; first compound 4 µM) | relative viability (Decitabine + Vorinostat; first compound 0.04 µM) | relative viability (Decitabine + Vorinostat; first compound 0.1265 µM) | relative viability (Decitabine + Vorinostat; first compound 0.4 µM) | relative viability (Decitabine + Vorinostat; first compound 1.265 µM) | relative viability (Decitabine + Vorinostat; first compound 4 µM) | relative viability ([1]; first compound 0.001 µM) | relative viability ([1]; first compound 0.003162 µM) | relative viability ([1]; first compound 0.01 µM) | relative viability ([1]; first compound 0.03162 µM) | relative viability ([1]; first compound 0.1 µM) |
| --- | --- | --- | --- | --- | --- | --- | --- | --- | --- | --- | --- | --- | --- | --- | --- | --- | --- | --- | --- | --- |
| LOU-NH91 | 0.43 | 0.551 | 0.627 | 0.491 | 0.519 | 0.735 | 0.847 | 0.732 | 0.72 | 0.73 | 0.768 | 0.958 | 0.848 | 0.805 | 0.849 | 0.567 | 0.515 | 0.494 | 0.492 | 0.589 |
| LU99A | 0.508 | 0.615 | 0.653 | 0.481 | 0.373 | 0.373 | 0.376 | 0.335 | 0.32 | 0.29 | 0.469 | 0.513 | 0.523 | 0.453 | 0.397 | 0.444 | 0.466 | 0.393 | 0.401 | 0.41 |
| LXF-289 | 0.201 | 0.193 | 0.129 | 0.118 | 0.0831 | 0.82 | 0.756 | 0.47 | 0.316 | 0.332 | 0.462 | 0.354 | 0.293 | 0.243 | 0.266 | 0.553 | 0.608 | 0.577 | 0.603 | 0.581 |
| NCI-H23 | 0.689 | 0.653 | 0.356 | 0.271 | 0.192 | 0.196 | 0.271 | 0.154 | 0.131 | 0.162 | 0.281 | 0.301 | 0.256 | 0.176 | 0.179 | 0.694 | 0.501 | 0.479 | 0.562 | 0.331 |
| NCI-H322M | 0.246 | 0.327 | 0.299 | 0.285 | 0.349 | 0.546 | 0.619 | 0.478 | 0.445 | 0.501 | 0.715 | 0.792 | 0.816 | 0.61 | 0.664 | 0.549 | 0.475 | 0.45 | 0.465 | 0.357 |
| NCI-H358 | 0.255 | 0.203 | 0.216 | 0.137 | 0.153 | 0.554 | 0.527 | 0.413 | 0.272 | 0.328 | 0.257 | 0.209 | 0.14 | 0.0806 | 0.0904 | 0.142 | 0.127 | 0.141 | 0.129 | 0.0899 |
| NCI-H441 | 0.335 | 0.266 | 0.26 | 0.211 | 0.206 | 0.422 | 0.428 | 0.287 | 0.259 | 0.254 | 0.211 | 0.281 | 0.249 | 0.169 | 0.181 | 0.254 | 0.241 | 0.206 | 0.241 | 0.152 |
| NCI-H460 | 0.453 | 0.682 | 0.341 | 0.239 | 0.183 | 0.576 | 0.593 | 0.361 | 0.134 | 0.105 | 0.669 | 0.64 | 0.293 | 0.214 | 0.0759 | 0.233 | 0.237 | 0.207 | 0.182 | 0.0284 |
| NCI-H522 | 1.02 | 0.748 | 0.607 | 0.632 | 0.678 | 0.819 | 0.692 | 0.571 | 0.567 | 0.591 | 0.898 | 0.684 | 0.562 | 0.505 | 0.54 | 0.861 | 0.756 | 0.829 | 1.04 | 0.95 |
| NCI-H647 | 0.212 | 0.261 | 0.196 | 0.104 | 0.0939 | 0.345 | 0.438 | 0.247 | 0.139 | 0.151 | 0.327 | 0.219 | 0.269 | 0.109 | 0.105 | 0.413 | 0.399 | 0.422 | 0.287 | 0.105 |
| NCI-H650 | 0.422 | 0.443 | 0.357 | 0.344 | 0.275 | 0.775 | 0.618 | 0.427 | 0.388 | 0.346 | 0.338 | 0.301 | 0.204 | 0.219 | 0.16 | 0.362 | 0.337 | 0.302 | 0.294 | 0.305 |
| NCI-H727 | 0.397 | 0.458 | 0.338 | 0.334 | 0.34 | 0.562 | 0.588 | 0.427 | 0.462 | 0.574 | 1.08 | 0.973 | 0.664 | 0.835 | 1.1 | 0.715 | 0.582 | 0.677 | 0.703 | 0.575 |
| NCI-H838 | 0.326 | 0.325 | 0.241 | 0.273 | 0.242 | 0.74 | 0.753 | 0.815 | 0.68 | 0.659 | 0.701 | 0.595 | 0.641 | 0.383 | 0.34 | 0.234 | 0.25 | 0.199 | 0.171 | 0.0921 |
| NCI-H1355 | 0.61 | 0.6 | 0.369 | 0.276 | 0.296 | 0.442 | 0.473 | 0.376 | 0.267 | 0.241 | 0.496 | 0.554 | 0.34 | 0.3 | 0.256 | 0.414 | 0.435 | 0.368 | 0.413 | 0.38 |
| NCI-H1395 | 0.409 | 0.416 | 0.428 | 0.413 | 0.417 | 0.379 | 0.39 | 0.446 | 0.391 | 0.348 | 0.548 | 0.634 | 0.605 | 0.429 | 0.524 | 0.645 | 0.589 | 0.542 | 0.553 | 0.458 |
| NCI-H1437 | 0.357 | 0.376 | 0.256 | 0.167 | 0.169 | 1.1 | 0.962 | 0.758 | 0.61 | 0.391 | 0.522 | 0.542 | 0.444 | 0.373 | 0.421 | 0.334 | 0.3 | 0.296 | 0.33 | 0.286 |
